Experimental data as given in patent US12377191B2, “Chondroinductive peptides and compositions and methods of use thereof” (The Board of Regents of the University of Oklahoma, priority 2018, dated 2025).
Where no end group is shown, it is not given here.

Key:
[1] = system: rat bone marrow mesenchymal stem cells (rBMSCs); assay: Preliminary study: chondroinductivity with rBMSCs by rt-PCR; type: cell-based; details: 100 ng/ml in medium, 3 days, p<0.05
Method: In a preliminary study, the chondroinductivities of Link N peptide (SEQ ID NO: 9, Table 2) and SPPEPS (SEQ ID NO:2) with rBMSCs were evaluated at two plate coating densities (0.5 and 1 μg/mm2) and two soluble concentrations (10 and 100 ng/mL) after 3 days by rt-PCR (n=3). For rBMSCs cultured on TCT plates the chondroinductivity was compared with negative control (no growth factor or peptide in the cell culture medium) and positive control group. The positive control was a known chondrogenic growth factor in lieu of the SPPEPS (SEQ ID NO:2) peptide, i.e., 10 ng/ml (dissolved in rBMSCs cell culture medium) human transforming growth factor-β3 (TGF-β3, R&D systems, Minneapolis, MN).
The gene expressions were analyzed for all the rBMSCs samples cultured on the TCT plates after 3 days (n=6) and all the rBMSCs cultured on the hydrogel surface after 3 days (n=4). The gene expressions of each sample were evaluated in triplicate. […] GAPDH was used as an endogenous control, with relative gene expression measured using the 2^−ΔΔCt method. […]

[2] = system: rat bone marrow mesenchymal stem cells (rBMSCs); assay: Gene expression (rt-PCR) of rBMSCs on TCT plates, SPPEPS coated or in medium; type: cell-based
Method: In one set of experimental groups, the SPPEPS (SEQ ID NO:2) peptide was adsorbed to the well plate surface. The peptide was dissolved in sterile DI water (20 μg/mL), sterile-filtered (0.22 μm), and was added to sterile 96-well plates to reach the desired coating concentrations (0.5, 1 and 3 μg/mm2) before overnight water evaporation at room temperature in sterile conditions. The rBMSCs were thawed and after passage 4 were cultured on the plates (150,000 cells/well, i.e., […]), for the control groups the rBMSCs were cultured (150,000 cells/well) on the uncoated TCT plates and the cell culture medium was changed every second day.
In a separate set of experimental groups, SPPEPS (SEQ ID NO:2) peptide was included in soluble form in the medium instead of being coated on the surface. rBMSCs were cultured on 96-well plates (150,000 cells/well) with cell culture medium containing SPPEPS (SEQ ID NO:2) (50, 100 and 500 ng/ml). The cell culture medium containing the peptide was changed every second day.
rBMSCs were cultured either on TCT plastic plates or on a hydrogel-coated surface. For the cells cultured on TCT plates, three different concentrations of SPPEPS (SEQ ID NO:2) peptide (50, 100 and 500 ng/ml) in cell culture medium, three different coating concentrations (0.5, 1 and 3 μg/mm2) and a control group (no growth factor or peptide in the cell culture medium) were chosen (n=6) and the peptide chondroinductivity was evaluated by rt-PCR after 3 days (see FIGS. 2-4 and gene expression subsection below).
The gene expressions were analyzed for all the rBMSCs samples cultured on the TCT plates after 3 days (n=6) and all the rBMSCs cultured on the hydrogel surface after 3 days (n=4). The gene expressions of each sample were evaluated in triplicate. To prepare the samples for gene expression, the mRNAs were extracted after 3 days using Qiagen RNeasy mini kit (Valencia, CA) following the kit instructions, before reverse transcription using a cDNA kit (Invitrogen, Carlsbad, CA). rt-PCR was performed with a qTOWER^3 Thermal Cycler (Upland. CA) using TaqMan Col2A1, Sox9, ACAN and GAPDH primers (Invitrogen, Carlsbad, CA). GAPDH was used as an endogenous control, with relative gene expression measured using the 2^−ΔΔCt method. For cells on both surfaces, the calibrators were the rBMSCs at passage 4 before transferring them to the 96-well plates.

rBMSC spheroids = assay: Collagen II gene expression of rBMSC spheroids (SPPEPS vs TGF-β3); type: cell-based, rat; details: 100 ng/ml SPPEPS; normoxic and hypoxic; n=5
Method: Collagen II gene expression with control (no supplement), TGF-β3, or SPPEPS (1, 100 ng/ml). Hypoxic bars are righthand, normoxic bars are lefthand. n=5, p<0.05 difference from αnormoxic control, βhypoxic control, *normoxic counterpart, SSPPEPS (SEQ ID NO: 2) 1 ng/ml, #normoxic TGF-β3,!all groups.

[3] = 50 ng/ml, 100 ng/ml and 500 ng/ml groups, 3 days
[4] = 100 ng/ml in medium, 3 days, p<0.05
[5] = coating 0.5 μg/mm2, 3 days, p<0.05
[6] = coating 1 μg/mm2, 3 days, p<0.05
[7] = coating 3 μg/mm2, 3 days, p<0.05

Substance: SPPEPS [chondroinductive peptide]
- collagen type II gene expression, times higher than in the control group [1]: 2.3 times
- Sox9 gene expression, times higher than coating group ([2]; 50 ng/ml in medium vs coating 0.5 μg/mm2): 4.5 times
- Sox9 gene expression, times higher than coating group ([2]; 50 ng/ml in medium vs coating 1 μg/mm2): 4.9 times
- Sox9 gene expression, times higher than coating group ([2]; 50 ng/ml in medium vs coating 3 μg/mm2): 5.2 times
- aggrecan gene expression higher compared to the control group ([2]; 50 ng/ml in medium, 3 days, p<0.05): 34%
- aggrecan gene expression higher than the control group (FIG. 4 legend) [2, 3]: ~35%
- aggrecan gene expression relative to the control group (FIG. 4 legend) [2, 3]: about 1.5 ×
- collagen type II gene expression higher than the control group (FIG. 3 legend) ([2]; 100 ng/ml in medium, 3 days): 35%
- aggrecan gene expression higher compared to the control group [2, 4]: 35%
- collagen type II gene expression, times higher than in the control group [2, 4]: 1.5 times
- collagen type II gene expression, times higher compared to SPPEPS 50 ng/mL ([2]; 100 ng/ml in medium, p<0.05): 1.5 times
- collagen type II gene expression, times higher compared to SPPEPS 500 ng/mL ([2]; 100 ng/ml in medium, p<0.05): 1.6 times
- Sox9 gene expression, times higher than coating group ([2]; 500 ng/ml in medium vs coating 0.5 μg/mm2): 3.2 times
- Sox9 gene expression, times higher than coating group ([2]; 500 ng/ml in medium vs coating 1 μg/mm2): 3.4 times
- Sox9 gene expression, times higher than coating group ([2]; 500 ng/ml in medium vs coating 3 μg/mm2): 3.6 times
- aggrecan gene expression higher compared to the control group ([2]; 500 ng/ml in medium, 3 days, p<0.05): 31%
- Sox9 gene expression: control group times higher than coating group [2, 5]: 4.0 times
- collagen type II gene expression lower than in the control group [2, 5]: 61%
- Sox9 gene expression: control group times higher than coating group [2, 6]: 4.2 times
- collagen type II gene expression lower than in the control group [2, 6]: 74%
- Sox9 gene expression: control group times higher than coating group [2, 7]: 4.5 times
- aggrecan gene expression higher compared to the control group [2, 7]: 31%
- collagen type II gene expression lower than in the control group [2, 7]: 75%
- chondroinduction (collagen II gene expression) compared to TGF-β3 (rBMSC spheroids): outperforms TGF-β3
